ChEMBL document CHEMBL1201862, “PubChem BioAssay data set” (2004)
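Exposure lasted 48 hours, with cells grown in 96-well plates and compounds tested at five concentrations. GI50 = concentration required for 50% inhibition of growth.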 The source made the active and inactive calls. Rule as the data show it: active = GI50 up to about 1.1 µM and inactive = higher.

Experiments:
Test in all cases: NCI tumour cell line growth inhibition, 48 h
IGROV-1 = tested on: IGROV-1
SW-620 = tested on: SW-620
KM12 = tested on: KM12
M14 = tested on: M14
SF-295 = tested on: SF-295
SN12C = tested on: SN12C
CCRF-CEM = tested on: CCRF-CEM
HCT-116 = tested on: HCT-116
A549 = tested on: A549
SNB-19 = tested on: SNB-19
SR = tested on: SR
HL-60 = tested on: HL-60
SK-MEL-28 = tested on: SK-MEL-28
SF-268 = tested on: SF-268
U-251 = tested on: U-251
SF-539 = tested on: SF-539
SK-OV-3 = tested on: SK-OV-3
RPMI-8226 = tested on: RPMI-8226
CAKI-1 = tested on: CAKI-1
HT-29 = tested on: HT-29

| SMILES | GI50 (IGROV-1) | GI50 (SW-620) | GI50 (KM12) | GI50 (M14) | GI50 (SF-295) | GI50 (SN12C) | GI50 (CCRF-CEM) | GI50 (HCT-116) | GI50 (A549) | GI50 (SNB-19) | GI50 (SR) | GI50 (HL-60) | GI50 (SK-MEL-28) | GI50 (SF-268) | GI50 (U-251) | GI50 (SF-539) | GI50 (SK-OV-3) | GI50 (RPMI-8226) | GI50 (CAKI-1) | GI50 (HT-29) |
| --- | --- | --- | --- | --- | --- | --- | --- | --- | --- | --- | --- | --- | --- | --- | --- | --- | --- | --- | --- | --- |
| Oc1cc(Cl)cc2cc(Br)cnc12 | 2.92 µM (inactive) | 3.96 µM (inactive) | 4.69 µM (inactive) | 1.56 µM (inactive) | 2.96 µM (inactive) | 2.23 µM (inactive) | 1.9 µM (inactive) | 1.09 µM (active) | 3.27 µM (inactive) | 4.1 µM (inactive) | 1.42 µM (inactive) | 0.258 µM (active) | 7.16 µM (inactive) | 1.59 µM (inactive) | 2.07 µM (inactive) | 2.18 µM (inactive) | > 59.8 µM (inactive) | 1.42 µM (inactive) | 6.79 µM (inactive) | 11.3 µM (inactive) |
| O=C1OC(c2ccccc2Br)=N/C1=C/c1ccccc1 | 39.4 µM (inactive) | 42.9 µM (inactive) | 19 µM (inactive) | 18.6 µM (inactive) | 34.1 µM (inactive) |  | 35 µM (inactive) | 37.2 µM (inactive) | 29.6 µM (inactive) | 24.9 µM (inactive) | 27 µM (inactive) | 39 µM (inactive) | 41.8 µM (inactive) | 31.6 µM (inactive) | 26.6 µM (inactive) | 18.5 µM (inactive) | 63.7 µM (inactive) | 33.1 µM (inactive) | 35.2 µM (inactive) | 32.1 µM (inactive) |
| Cc1ccc2oc(=O)c(-c3ccccc3)nc2c1 |  | 22 µM (inactive) | 19.6 µM (inactive) | 43.3 µM (inactive) | 40.5 µM (inactive) | 31.8 µM (inactive) | 18.5 µM (inactive) | 20.6 µM (inactive) | 26 µM (inactive) | 38.9 µM (inactive) | 29.5 µM (inactive) | > 10 µM (inactive) | 50.4 µM (inactive) | 25.2 µM (inactive) |  | 18.2 µM (inactive) |  | 31.5 µM (inactive) | 28.9 µM (inactive) | 45.6 µM (inactive) |
| COc1ccc(C2c3cc4c(cc3OC(N3CCOCC3)C2C)OCO4)cc1OC (configuration not stated) | 7.64 µM (inactive) | 4.74 µM (inactive) | 4.46 µM (inactive) | 5.38 µM (inactive) | 4.39 µM (inactive) | 22.6 µM (inactive) | 4.28 µM (inactive) | 4.75 µM (inactive) | 7.82 µM (inactive) | 7.18 µM (inactive) | 7.36 µM (inactive) | 3.06 µM (inactive) | > 50.5 µM (inactive) | 13.9 µM (inactive) | 5.52 µM (inactive) | 3.89 µM (inactive) | 5.24 µM (inactive) | 6.18 µM (inactive) | 3.07 µM (inactive) | 4.69 µM (inactive) |
| CC1CCC(=O)C(C(O)CC2CC(=O)N(c3ccccc3)C(=O)C2)C1 (configuration not stated) | > 100 µM (inactive) | > 100 µM (inactive) | > 100 µM (inactive) | > 100 µM (inactive) | > 100 µM (inactive) | > 100 µM (inactive) | > 100 µM (inactive) | > 100 µM (inactive) | > 100 µM (inactive) | > 100 µM (inactive) | > 100 µM (inactive) | > 100 µM (inactive) | > 100 µM (inactive) | > 100 µM (inactive) | > 100 µM (inactive) | > 100 µM (inactive) | > 100 µM (inactive) | > 100 µM (inactive) | > 100 µM (inactive) | > 100 µM (inactive) |
| CC1=CCC2CC1C(C(=O)c1c[nH]c3ccccc13)=NC2(C)C (configuration not stated) | > 100 µM (inactive) | 76 µM (inactive) | 52.4 µM (inactive) | 41.5 µM (inactive) |  | 87.9 µM (inactive) | 22.4 µM (inactive) | 50.4 µM (inactive) | 61 µM (inactive) | > 100 µM (inactive) | 4.5 µM (inactive) | 20.8 µM (inactive) | > 100 µM (inactive) | > 100 µM (inactive) | 34.5 µM (inactive) | > 100 µM (inactive) | 94.4 µM (inactive) | 25.1 µM (inactive) | > 100 µM (inactive) | 51.1 µM (inactive) |
| CSc1nc2c(c(=O)n1C)N=C(c1ccc(Cl)cc1)CC(c1ccccc1)N2 (configuration not stated) | 18.3 µM (inactive) | 49 µM (inactive) | 15.7 µM (inactive) | 17.5 µM (inactive) | 21.3 µM (inactive) | 18.7 µM (inactive) | 26 µM (inactive) | 27.2 µM (inactive) | 25.2 µM (inactive) | 36.3 µM (inactive) | 29.9 µM (inactive) | 29 µM (inactive) | 47.8 µM (inactive) |  | 40.8 µM (inactive) | 17.9 µM (inactive) | 29.4 µM (inactive) | 22 µM (inactive) | 24.4 µM (inactive) | 15.6 µM (inactive) |
| O=c1cnn(C/C=C\CO)c(=O)[nH]1 | > 100 µM (inactive) | > 100 µM (inactive) | > 100 µM (inactive) | > 100 µM (inactive) |  | > 100 µM (inactive) | > 100 µM (inactive) |  | > 100 µM (inactive) | > 100 µM (inactive) | > 100 µM (inactive) | > 100 µM (inactive) | > 100 µM (inactive) | > 100 µM (inactive) | > 100 µM (inactive) | > 100 µM (inactive) |  | > 100 µM (inactive) | > 100 µM (inactive) |  |
| Cc1cc(O)nc(NNC(C#N)c2ccc(O)cc2)n1 (configuration not stated) | > 100 µM (inactive) | > 100 µM (inactive) | > 100 µM (inactive) | > 100 µM (inactive) | > 100 µM (inactive) | > 100 µM (inactive) | > 100 µM (inactive) | > 100 µM (inactive) | > 100 µM (inactive) |  | > 100 µM (inactive) | > 100 µM (inactive) | > 100 µM (inactive) | > 100 µM (inactive) | > 100 µM (inactive) | > 100 µM (inactive) | > 100 µM (inactive) | > 100 µM (inactive) | > 100 µM (inactive) | > 100 µM (inactive) |
| Oc1ccc(-c2nc3ccc4ccccc4c3c3c2CCCC3)c(O)c1 | 4.34 µM (inactive) | 20.4 µM (inactive) | 13.8 µM (inactive) | 15.2 µM (inactive) | 37.2 µM (inactive) | 17.7 µM (inactive) |  | 10.7 µM (inactive) | 23.2 µM (inactive) | 16.3 µM (inactive) | 20.2 µM (inactive) | 2.55 µM (inactive) | 19.2 µM (inactive) | 22.2 µM (inactive) | 4.1 µM (inactive) | 42.3 µM (inactive) | 48.6 µM (inactive) | 9.31 µM (inactive) | 42.5 µM (inactive) | 11.9 µM (inactive) |
| O=C(/C=C/c1ccccc1)Oc1cccc(O)c1 | 17.3 µM (inactive) | 18.3 µM (inactive) | 19.1 µM (inactive) | 43.1 µM (inactive) | 17.8 µM (inactive) | 44.1 µM (inactive) |  | 16.4 µM (inactive) | 46 µM (inactive) | 20.2 µM (inactive) | 18.2 µM (inactive) | 16.9 µM (inactive) | 23.6 µM (inactive) | 15.5 µM (inactive) | 34.3 µM (inactive) | > 100 µM (inactive) | > 100 µM (inactive) | 9.55 µM (inactive) | 49.1 µM (inactive) | 37.2 µM (inactive) |
| NC(=O)c1ccccc1NC(=O)C(=O)Nc1n[nH]c(N)n1 | > 100 µM (inactive) | > 100 µM (inactive) | > 100 µM (inactive) | > 100 µM (inactive) | > 100 µM (inactive) | > 100 µM (inactive) | > 100 µM (inactive) | > 100 µM (inactive) | > 100 µM (inactive) | > 100 µM (inactive) | > 100 µM (inactive) | > 100 µM (inactive) |  |  | > 100 µM (inactive) | > 100 µM (inactive) | > 100 µM (inactive) | > 100 µM (inactive) | > 100 µM (inactive) | > 100 µM (inactive) |
| Nc1nc(Cl)cc(NCC2(CO)CCC(OCc3ccccc3)C2)n1 (configuration not stated) | 18.2 µM (inactive) | 60 µM (inactive) | 21 µM (inactive) | 20.7 µM (inactive) | 31 µM (inactive) | 8.89 µM (inactive) | 14.6 µM (inactive) | 16.9 µM (inactive) | 15.2 µM (inactive) | 23.1 µM (inactive) | 4.06 µM (inactive) | 21.4 µM (inactive) | 19.5 µM (inactive) | 26.2 µM (inactive) | 29.9 µM (inactive) | 29.7 µM (inactive) | 11.1 µM (inactive) | 34.4 µM (inactive) | 8.09 µM (inactive) | 11.1 µM (inactive) |
| COc1ccc2c(c1)O[C@H]1c3ccc(O)cc3OC[C@@H]21 | 17.5 µM (inactive) | 33 µM (inactive) |  | 19.2 µM (inactive) | 35.2 µM (inactive) | 38.8 µM (inactive) | 19.2 µM (inactive) | 27.6 µM (inactive) | 28.6 µM (inactive) | 68.1 µM (inactive) | 14.3 µM (inactive) | 18.1 µM (inactive) |  | 28.1 µM (inactive) | 27.9 µM (inactive) | 20.7 µM (inactive) | 39.5 µM (inactive) | 25.7 µM (inactive) | 24.1 µM (inactive) | 34.4 µM (inactive) |
| CN(C)CCC1(C2=CCCC2)CC/C(=C\c2ccccc2)C1=O (configuration not stated) | 15.5 µM (inactive) | 16.9 µM (inactive) | 15.5 µM (inactive) | 16.4 µM (inactive) | 19.1 µM (inactive) | 17 µM (inactive) | 17.1 µM (inactive) | 19.5 µM (inactive) | 20.3 µM (inactive) | 14.7 µM (inactive) | 25.2 µM (inactive) | 11.8 µM (inactive) | 21.8 µM (inactive) | 21.5 µM (inactive) | 16.6 µM (inactive) | 16.6 µM (inactive) |  | 14.6 µM (inactive) | 12.5 µM (inactive) | 17.1 µM (inactive) |
